# Measurements published in patent US10611771B2, “Pyrazolo [3,4-d] pyrimidine derivative” (WEST CHINA HOSPITAL, SICHUAN UNIVERSITY, priority 2016, dated 2020).
# Where “and” joins values, the source holds several entries; their conditions need not be identical. Equal values may be shown once.
# Assays:
# A549 cells = assay: MTT detection method, inhibitory effect against A549 cells; type: cell-based
# From the text: (§1) MTT detection method was used, and MTT is a yellow compound and a dye accepting hydrogen ions, and can be used as the respiratory chain in mitochondria of viable cells. Under the action of succinate dehydrogenase and cytochrome C, the tetrazolium ring broke to form blue formanzan crystal, and the formation amount of formanzan crystal was only directly proportional to the viable counts. The formanzan crystal formed by reduction can dissolve in dimethyl sulfoxide (DMSO), and the optical density (OD) value can be determined at 490 nm using ELISA, to reflect the viable counts.
# (§2) • Lung cancer cell lines: A549 and H1299. • Experimental materials: lung cancer cell lines, instruments and tools for cell culture, MTT, the compound mother liquid (10 mmol/L), and the positive control drug Src inhibitor pp1. 1. Specific Method • (3-1) Cell lines A549 and H1299 were recovered, and when the cells were in good conditions, namely cells grew to about 80% after one passage (i.e. the logarithmic growth phase), the cells were planked (96-well plate). • (3-2) Firstly, cells were collected, and the concentration of cell suspension was adjusted with counting chamber. Cells were seeded in 96-well plate at 1000˜10000 cells/well, and the detailed cell numbers in each well were dependent on the growth rate of different cells and the action time of drugs. A549 cells were seeded at 5000 cells, while H1299 cells were also seeded at 5000 cells, 200 μl for each well (100 μl cell suspension+100 μl drug dilution at different concentration gradient). The edge wells (36) were added 200 μl culture media (for prevention of edge effect). • (3-3) After planking and adding drugs, the plate was treated at 24 h, 48 h, and 72 h, and then for coloration, each well was added 200 μl culture media containing 20 μl MTT solution (5 mg/mL). The plate was continually cultured for 1˜4 hours, the incubation was stopped, and the culture supernatant fluid in each well was carefully absorbed. For suspension cells, the culture supernatant fluid in each well need be centrifuged before drawing. 150 μl DMSO was added to each well, and the plate was shaken on a shaking table for 15˜20 min, to allow the crystals to be completely dissolved. • (3-4) Colorimetry: The colorimetry was performed by ELISA, and the optical absorption value of each well was tested at a wavelength of 490 nm or 570 nm, and the result was recorded. • (3-5) Calculation Inhibition ratio=(the control−the drug)/the control×100% • IC50 (50% inhibitory concentration) can be calculated by spass software based on the inhibitory ratio at different concentration. II. Experimental Results • A549 cells were treated at 4 h, 24 h, 48 h, 72 h, and the drug dose was divided into the light concentration group (10 μm, 25 μm, 40 μm) and the high concentration group (50 μm, 80 μm, 100 μm), that were seeded at 6000 cells/well and 5000 cells/well, respectively, to carry out the experiment.
# H1299 cells = assay: MTT detection method, inhibitory effect against H1299 cells; type: cell-based
# From the text: as §1, §2
# H1299 cells were seeded at 5000 cells/well, and after treatment for 4 h, 24 h, 48 h, and 72 h, the results were shown in Tables 5-9 and FIGS. 5-8: […]
compound,measurement,setting,value
"CCCCn1nc(-c2ccc(OCCOCCOCCOCCOS(=O)(=O)c3ccc(C)cc3)cc2)c2c(N)ncnc21 [Compound 2, 2-(2-(2-(2-(4-(4-amino-1-n-butyl-1H-pyrazolo[3,4-d]pyrimidin-3-)phenoxy)ethoxy)ethoxy)ethoxy)ethyl 4-methylbenzenesulfonic Acid]",The inhibitory ratio (%) for three parallel assays,"A549 cells; 4 h, 10 μm",25.00% and 30.31% and 29.06%
same,The mean inhibitory ratio (%),"A549 cells; 4 h, 10 μm",28.13%
same,The inhibitory ratio (%) for three parallel assays,"A549 cells; 4 h, 25 μm",14.38% and 17.19% and 13.44%
same,The mean inhibitory ratio (%),"A549 cells; 4 h, 25 μm",15.00%
same,The mean inhibitory ratio (%),"A549 cells; 4 h, 40 μm",14.17%
same,The inhibitory ratio (%) for three parallel assays,"A549 cells; 4 h, 50 μm",34.57%
same,The mean inhibitory ratio (%),"A549 cells; 4 h, 50 μm",34.57%
same,The inhibitory ratio (%) for three parallel assays,"A549 cells; 4 h, 80 μm",34.86% and 36.86% and 35.14%
same,The mean inhibitory ratio (%),"A549 cells; 4 h, 80 μm",35.62%
same,The inhibitory ratio (%) for three parallel assays,"A549 cells; 4 h, 100 μm",39.43% and 38.29% and 35.71%
same,The mean inhibitory ratio (%),"A549 cells; 4 h, 100 μm",37.81%
same,The inhibitory ratio (%) for three parallel assays,"A549 cells; 24 h, 10 μm",16.09% and 20.22% and 12.83%
same,The mean inhibitory ratio (%),"A549 cells; 24 h, 10 μm",16.38%
same,The inhibitory ratio (%) for three parallel assays,"A549 cells; 24 h, 25 μm",20.43% and 18.48% and 18.70%
same,The mean inhibitory ratio (%),"A549 cells; 24 h, 25 μm",19.20%
same,The inhibitory ratio (%) for three parallel assays,"A549 cells; 24 h, 40 μm",18.48% and 24.35% and 23.91%
same,The mean inhibitory ratio (%),"A549 cells; 24 h, 40 μm",22.25%
same,The inhibitory ratio (%) for three parallel assays,"A549 cells; 24 h, 50 μm",71.46% and 71.25% and 71.04%
same,The mean inhibitory ratio (%),"A549 cells; 24 h, 50 μm",71.25%
same,The inhibitory ratio (%) for three parallel assays,"A549 cells; 24 h, 80 μm",75.63% and 75.83% and 74.79%
same,The mean inhibitory ratio (%),"A549 cells; 24 h, 80 μm",75.42%
same,The inhibitory ratio (%) for three parallel assays,"A549 cells; 24 h, 100 μm",73.75% and 75.83% and 74.58%
same,The mean inhibitory ratio (%),"A549 cells; 24 h, 100 μm",74.72%
same,The inhibitory ratio (%) for three parallel assays,"A549 cells; 48 h, 10 μm",24.84% and 31.41% and 29.22%
same,The mean inhibitory ratio (%),"A549 cells; 48 h, 10 μm",28.49%
same,The inhibitory ratio (%) for three parallel assays,"A549 cells; 48 h, 25 μm",32.66% and 36.72% and 31.56%
same,The mean inhibitory ratio (%),"A549 cells; 48 h, 25 μm",33.65%
same,The inhibitory ratio (%) for three parallel assays,"A549 cells; 48 h, 40 μm",47.97% and 47.66% and 49.06%
same,The mean inhibitory ratio (%),"A549 cells; 48 h, 40 μm",48.23%
same,The inhibitory ratio (%) for three parallel assays,"A549 cells; 48 h, 50 μm",82.83% and 81.50% and 80.33%
same,The mean inhibitory ratio (%),"A549 cells; 48 h, 50 μm",81.56%
same,The inhibitory ratio (%) for three parallel assays,"A549 cells; 48 h, 80 μm",82.67% and 83.00% and 82.83%
same,The mean inhibitory ratio (%),"A549 cells; 48 h, 80 μm",82.83%
same,The inhibitory ratio (%) for three parallel assays,"A549 cells; 48 h, 100 μm",83.17% and 83.00% and 82.83%
same,The mean inhibitory ratio (%),"A549 cells; 48 h, 100 μm",83.00%
same,The inhibitory ratio (%) for three parallel assays,"A549 cells; 72 h, 10 μm",30.00% and 29.46%
same,The mean inhibitory ratio (%),"A549 cells; 72 h, 10 μm",29.64%
same,The inhibitory ratio (%) for three parallel assays,"A549 cells; 72 h, 25 μm",48.74% and 47.21% and 50.00%
same,The mean inhibitory ratio (%),"A549 cells; 72 h, 25 μm",48.65%
same,The inhibitory ratio (%) for three parallel assays,"A549 cells; 72 h, 40 μm",68.92% and 70.36% and 70.63%
same,The mean inhibitory ratio (%),"A549 cells; 72 h, 40 μm",69.97%
same,The inhibitory ratio (%) for three parallel assays,"A549 cells; 72 h, 50 μm",88.11% and 87.97% and 88.38%
same,The mean inhibitory ratio (%),"A549 cells; 72 h, 50 μm",88.15%
same,The inhibitory ratio (%) for three parallel assays,"A549 cells; 72 h, 80 μm",88.51% and 88.38%
same,The mean inhibitory ratio (%),"A549 cells; 72 h, 80 μm",88.47%
same,The inhibitory ratio (%) for three parallel assays,"A549 cells; 72 h, 100 μm",88.38% and 88.65% and 88.51%
same,The mean inhibitory ratio (%),"A549 cells; 72 h, 100 μm",88.51%
same,The inhibitory ratio (%) for three parallel assays,"H1299 cells; 4 h, 10 μm",9% and 12% and 2%
same,The mean inhibitory ratio (%),"H1299 cells; 4 h, 10 μm",7%
same,The inhibitory ratio (%) for three parallel assays,"H1299 cells; 4 h, 25 μm",12% and 15%
same,The mean inhibitory ratio (%),"H1299 cells; 4 h, 25 μm",13%
same,The inhibitory ratio (%) for three parallel assays,"H1299 cells; 4 h, 40 μm",16% and 17%
same,The mean inhibitory ratio (%),"H1299 cells; 4 h, 40 μm",16%
same,The inhibitory ratio (%) for three parallel assays,"H1299 cells; 4 h, 50 μm",14% and 13%
same,The mean inhibitory ratio (%),"H1299 cells; 4 h, 50 μm",14%
same,The inhibitory ratio (%) for three parallel assays,"H1299 cells; 4 h, 80 μm",11% and 10%
same,The mean inhibitory ratio (%),"H1299 cells; 4 h, 80 μm",11%
same,The inhibitory ratio (%) for three parallel assays,"H1299 cells; 4 h, 100 μm",13% and 17% and 12%
same,The mean inhibitory ratio (%),"H1299 cells; 4 h, 100 μm",14%
same,The inhibitory ratio (%) for three parallel assays,"H1299 cells; 24 h, 10 μm",10% and 9% and 13%
same,The mean inhibitory ratio (%),"H1299 cells; 24 h, 10 μm",11%
same,The inhibitory ratio (%) for three parallel assays,"H1299 cells; 24 h, 25 μm",26% and 23% and 25%
same,The mean inhibitory ratio (%),"H1299 cells; 24 h, 25 μm",25%
same,The inhibitory ratio (%) for three parallel assays,"H1299 cells; 24 h, 40 μm",36% and 35% and 37%
same,The mean inhibitory ratio (%),"H1299 cells; 24 h, 40 μm",36%
same,The inhibitory ratio (%) for three parallel assays,"H1299 cells; 24 h, 50 μm",44% and 45% and 41%
same,The mean inhibitory ratio (%),"H1299 cells; 24 h, 50 μm",43%
same,The inhibitory ratio (%) for three parallel assays,"H1299 cells; 24 h, 80 μm",42% and 41%
same,The mean inhibitory ratio (%),"H1299 cells; 24 h, 80 μm",42%
same,The inhibitory ratio (%) for three parallel assays,"H1299 cells; 24 h, 100 μm",40%
same,The mean inhibitory ratio (%),"H1299 cells; 24 h, 100 μm",40%
same,The inhibitory ratio (%) for three parallel assays,"H1299 cells; 48 h, 10 μm",16% and 20% and 21%
same,The mean inhibitory ratio (%),"H1299 cells; 48 h, 10 μm",19%
same,The inhibitory ratio (%) for three parallel assays,"H1299 cells; 48 h, 25 μm",37% and 36%
same,The mean inhibitory ratio (%),"H1299 cells; 48 h, 25 μm",37%
same,The inhibitory ratio (%) for three parallel assays,"H1299 cells; 48 h, 40 μm",57%
same,The mean inhibitory ratio (%),"H1299 cells; 48 h, 40 μm",57%
same,The inhibitory ratio (%) for three parallel assays,"H1299 cells; 48 h, 50 μm",61%
same,The mean inhibitory ratio (%),"H1299 cells; 48 h, 50 μm",61%
same,The inhibitory ratio (%) for three parallel assays,"H1299 cells; 48 h, 80 μm",64% and 63% and 62%
same,The mean inhibitory ratio (%),"H1299 cells; 48 h, 80 μm",63%
same,The inhibitory ratio (%) for three parallel assays,"H1299 cells; 48 h, 100 μm",65% and 64% and 63%
same,The mean inhibitory ratio (%),"H1299 cells; 48 h, 100 μm",64%
same,The inhibitory ratio (%) for three parallel assays,"H1299 cells; 72 h, 10 μm",28% and 24% and 27%
same,The mean inhibitory ratio (%),"H1299 cells; 72 h, 10 μm",26%
same,The inhibitory ratio (%) for three parallel assays,"H1299 cells; 72 h, 25 μm",44% and 43% and 42%
same,The mean inhibitory ratio (%),"H1299 cells; 72 h, 25 μm",43%
same,The inhibitory ratio (%) for three parallel assays,"H1299 cells; 72 h, 40 μm",65% and 64%
same,The mean inhibitory ratio (%),"H1299 cells; 72 h, 40 μm",65%
same,The inhibitory ratio (%) for three parallel assays,"H1299 cells; 72 h, 50 μm",73% and 74%
same,The mean inhibitory ratio (%),"H1299 cells; 72 h, 50 μm",74%
same,The inhibitory ratio (%) for three parallel assays,"H1299 cells; 72 h, 80 μm",80% and 78%
same,The mean inhibitory ratio (%),"H1299 cells; 72 h, 80 μm",80%
same,The inhibitory ratio (%) for three parallel assays,"H1299 cells; 72 h, 100 μm",84% and 83% and 81%
same,The mean inhibitory ratio (%),"H1299 cells; 72 h, 100 μm",83%
